Experimental data as given in patent US9084779B2, “Conjugates of nitroimidazoles and their use as chemotherapeutic agents” (The Johns Hopkins University, priority 2011, dated 2015).
In brackets after ≈: the same amount, converted by molar mass.

Key:
[1] = Determination of water solubility by UV absorbance of a saturated solution; format: physicochemical; settings: thermodynamic from solid; water, saturated solution, sonicated at 25° C., stirred at room temperature 1.0 h, filtered
Procedure: The aqueous solubility of all eight compounds was assessed by using a technique involving measurement of their UV absorbance^29.
Determination of Water Solubility of Compounds 7a-d and 10a-d. A saturated solution was prepared by addition of a test compound (7a-d and 10a-d; ca. 1.00 mg) to water (1.00 mL), which was sonicated at 25° C. for 5.0 min and stirring at room temperature for an additional 1.0 h. After filtration with Millipore filters (0.45-μm-pore-size polyvinylidene fluoride), the supernatant was analyzed by UV spectroscopy with concentration determined from absorbance, standardized against calibration data. Standard curves for each compound were obtained by plotting absorbance against concentration. The concentration range of the standard solutions was 1.0-10 μg/mL. For all standards, their curves were linear with γ>0.996.

[2] = test system: orthotopic HT29 tumor implants; assay: Orthotopic xenograft of HT29 human colorectal carcinoma in nude mice, systemic treatment; format: in vivo, nude (Nu/Nu) mice
Procedure: Orthotopic Xenograft implantation of HT29 human colorectal carcinoma cells into nude mice. HT29 cells were grown in culture in McCoy's medium until sub-confluent. A single cell suspension of HT29 was then prepared in HBSS and 1×10^7 cells were injected subcutaneously into the flanks of four male T-cell deficient nude (Nu/Nu) mice. Subcutaneous tumors were allowed to grow for 14 days before harvesting and preparation for orthotopic implantation. The mice were euthanized and the subcutaneous tumors were removed using sterile technique. The tumors were divided into 3×3 mm pieces that were kept in phosphate buffered saline (PBS) on ice. T-cell deficient nude (NU/NU) mice (6 male, 5 female) were anesthetized by injecting 0.5 to 1.0 mL of Avertin (20 mM) intraperitoneally in PBS. The abdomen was prepped with 70% ethanol three times and a small nick was made in the skin. The abdominal wall musculature was grasped, lifted, and entered with a single blade of scissors. The single blade of the scissors was used to push the contents of the abdominal cavity away and the incision was extended 2-3 cm. The cecum was identified by its blind ending pouch and exteriorized. The cecum was isolated from the rest of the mouse using pre-cut, sterile gauze and kept moist with warm PBS. A figure of 8 stitches was placed onto the cecum using a 7-0 sized suture and the cecal wall was slightly damaged at the site where the HT29 tumor piece is to be implanted using forceps. An HT29 tumor piece was positioned on the cecum under the stitch and the stitch was then tied. The cecum was returned to the abdominal cavity. Using staples, the mouse abdominal wall musculature and skin was closed and the mouse was allowed to recover from anesthesia.
Systemic treatment with M3N-PEG-2NI (compound 7d). A 40 mM stock solution of M3N-PEG-2NI was prepared by dissolving 0.14 g of M3N-PEG-2NI (MW=616.3 g/mol) in 5.7 mL of CPE. Each day of treatment, 4 T-cell deficient nude mice (2 male, 2 female) bearing orthotopic HT29 tumor implants received 0.1 ml of 20 mM M3N-PEG-2NI via I.V. or I.P. injections. The remaining 4 T-cell deficient nude mice (2 male, 2 female) received 0.1 mL of CPE (FIG. 7) Body weight of mice was monitored every week, until significant body weight change occurred. Then, body weight was measured every other day until day 24. All 8 mice were euthanized on day 24. The mice were dissected and their major organs collected. Special attention was taken in examination of livers since liver metastasis is common in orthotopic colon cancer models.

[3] = test system: subcutaneous LNCaP prostate cancer cell explants; assay: Immunofluorescence analysis of 2-nitroimidazole induced protein adducts in mouse tumor explants; format: in vivo, nude mice; settings: daily intravenous tail vein injection for three weeks
Procedure: Immunofluorescence analysis of 2-nitroimidazole induced protein adducts in mouse tumor explants. Nude mice with subcutaneous LNCaP prostate cancer cell explants were administered Hydroxyprobe-1, M3N or M3N-PEG-2NI for three weeks by daily intravenous tail vein injection with an additional injection 3 hours prior to euthanization. Tumors were removed from the euthanized mice by dissection and incubated in 30% sucrose/PBS overnight at 4° C. Excess sucrose was removed and the tissue was incubated in 30% sucrose/PBS:OCT (1:1) for 1 hour at room temperature. Afterward the tissue was frozen in 100% OCT. Frozen sections of […] were prepared and fixed in 4% PFA/PBS for 1 hour at room temperature. The sections were blocked overnight at 4° C. with 5% goat serum/PBS or at room temperature for 1 hour and then incubated with Hydroxyprobe-1 rabbit antiserum (1:200) overnight at 4° C. After three washes with PBS, the secondary antibody, mouse anti rabbit-FITC (1:1000) was added for 1 hour at room temperature. The sections were mounted using Vectashield and fluorescently imaged.

[4] = 0.1 ml of 20 mM I.V. or I.P., three weeks, euthanized day 24, listed as M3N-PEG-2NI

solubility at 1 h [1]: 13.2 µg/mL (≈ 21.5 µM)
SMILES: COc1ccc(C[C@H](C)[C@H](C)Cc2ccc(OC)c(OCCOCCOCCOCCn3ccnc3[N+](=O)[O-])c2)cc1OC (racemic) [Compound 7d, (±)-(2R,3S)-4-(3,4-Dimethoxyphenyl)-1-[4-methoxy-3-[12-(2-nitro-1H-imidazol-1-yl)-1,4,7,10-tetraoxadodecanyl]phenyl]-2,3-dimethylbutane]
Mean Primary Tumor and Mass ([2]; 0.1 ml of 20 mM I.V. or I.P., three weeks, euthanized day 24, listed as M3N-PEG-2N): 300 ± 140 mg
Mean Abdominal Cavity Tumor Mass [2, 4]: 75 ± 50 mg
Mean Primary Tumor and Mass [2, 4]: 300 ± 140 mg
Body Weight Increase ([2]; 0.1 ml of 20 mM I.V. or I.P., to day 24): 11.3%
Mean Total Tumor Load ([2]; primary tumor plus total tumor mass, 0.1 ml of 20 mM I.V. or I.P., day 24, listed as M3N-PEG-2NI): 375 ± 150 mg
Mice that developed liver metastasis ([2]; treated group of 4 mice, day 24): 1 of the 4
Peritoneal tumors ([2]; treated group, mice 5 (female) and 7 (male)): no peritoneal tumors
Peritoneal tumors ([2]; treated group, mice 6 (female) and 8 (male)): a single, small peritoneal tumor
Tumor masses surrounding the kidneys and ovaries, weight each ([2]; treated group, mouse 5): < 100 mg
Tumor surrounding the ovaries, weight ([2]; treated group, mouse 6): < 100 mg
Protein adducts in tumor sections by immunofluorescence [3]: Protein-adducts were also found
